Data as given in patent US20240382608A1, “NOVEL LIGAND-DRUG CONJUGATE OF CAMPTOTHECIN ANALOGS, INTERMEDIATES, PHARMACEUTICAL COMPOSITION AND APPLICATION THEREOF” (SHANGHAI MICURX PHARMACEUTICAL CO., LTD., priority 2023, published 2024).
pIC50: −log10 of the molar value. Read-outs that look alike come from different tables or passages of the source.

What was measured:
[1] = test system: A549; assay: In vitro cytotoxicity test of camptothecin payloads (CellTiter-Glo); assay type: cell-based; conditions: Homo sapiens, A549, 72 h; for IC50: read-out: A549 Cytotoxicity IC50 (nM)
Experimental: (§1) Human lung adenocarcinoma cell line A549, NCI-N87, and SK-BR-3 were used to evaluate the cytotoxicity of small molecule fragment of the present invention. These cells were seeded to a 96-well plate at 2000 cells per well.

[2] = test system: NCI-N87; assay: as above; assay type: cell-based; conditions: Homo sapiens, NCI-N87, 72 h, read-out: NCI-N87 Cytotoxicity IC50 (nM)
Experimental: as §1

[3] = test system: SK-BR-3; assay: as above; assay type: cell-based; conditions: Homo sapiens, SK-BR-3, 72 h, read-out: SK-BR-3 Cytotoxicity IC50 (nM)
Experimental: as §1

[4] = Rat PK study; assay type: in vivo; conditions: Sprague-Dawley (SD)
Experimental: Male SD rat, 180-200 g (BK lab. Animal Ltd.), 3 Rats/group. Blood samples were collected by orbital vein after IV administration 1 mg/kg dosage at 0.083, 0.5, 1, 2, 4, and 8 h into heparin-containing tubes, centrifugated at 10000 rpm for 3 min to get plasma. All samples were stored at −20° C. until they were sent to Suzhou Chengyao Biotech Co., Ltd. for analysis.

[5] = male, rat, in vivo, iv, 1 mg/kg

SMILES | IC50 [1] | IC50 [2] | IC50 [3] | other results
CC[C@@]1(O)C(=O)OCc2c1cc1n(c2=O)Cc2c-1nc1ccc(N)c3c1c2C=CS3 [Example 1, (S)-4-amino-9-ethyl-9-hydroxy-12,15-dihydro-13H-pyrano[3′,4′:6,7]indolizino[1,2-b]thiopyrano[4,3,2-de]quinoline-10,13(9H)-dione] | 10.7 nM | 5.2 nM | 38.6 nM | MRT inf [4, 5]: 12 min; Vd [4, 5]: 0.9 L/kg; half-life [4, 5]: 18 min
CC[C@@]1(O)C(=O)OCc2c1cc1n(c2=O)Cc2c-1nc1cc(F)c(N)c3c1c2C=CS3 [Example 2, (S)-4-amino-9-ethyl-5-fluoro-9-hydroxy-12,15-dihydro-13H-pyrano[3′,4′:6,7]indolizino[1,2-b]thiopyrano[4,3,2-de]quinoline-10,13(9H)-dione] | 0.8 nM | – | – | –
CC[C@@]1(O)C(=O)OCc2c1cc1n(c2=O)Cc2c-1nc1ccc(NC(=O)CO)c3c1c2C=CS3 [Example 13] | 26.4 nM | 21.7 nM | 52.3 nM | –
CC[C@@]1(O)C(=O)OCc2c1cc1n(c2=O)Cc2c-1nc1cc(F)c(C)c3c1c2[C@@H](NC(=O)CO)CC3 [drawing 109] | 163 nM | 26 nM | 802 nM | –
CC[C@@]1(O)C(=O)OCc2c1cc1n(c2=O)Cc2c-1nc1ccc(N)c3c1c2CCS3 [drawing 110] | – | – | – | pIC50 ([1]; cell viability after 3 days, 2000 cells per well, read-out: A549 Cytotoxicity IC50): 7.65
CC[C@@]1(O)C(=O)OCc2c1cc1n(c2=O)Cc2c-1nc1cc(F)c(C)c3c1c2[C@@H](NC(=O)CO)CC3 [drawing 111] | – | – | – | MRT inf ([4]; in vivo, male SD rat, IV 1 mg/kg, plasma, read-out: MRT0-∞): 30 min; half-life ([4]; in vivo, male SD rat, IV 1 mg/kg, plasma, read-out: T1/2 (converted)): 30 min; Vd ([4]; in vivo, male SD rat, IV 1 mg/kg, plasma, read-out: Vss): 20.6 L/kg
CC[C@@]1(O)C(=O)OCc2c1cc1n(c2=O)Cc2c-1nc1ccc(N)c3c1c2CCS3 [drawing 112] | – | – | – | MRT inf ([4]; male SD rat, IV 1 mg/kg, plasma, read-out: MRT0-∞): 114 min; half-life ([4]; male SD rat, IV 1 mg/kg, plasma, read-out: T1/2 (converted)): 126 min; Vd ([4]; male SD rat, IV 1 mg/kg, plasma, read-out: Vss): 7.2 L/kg
